Assay results: patent publication US11191811B2, “Osteocalcin as a treatment for frailty associated with aging” (THE TRUSTEES OF COLUMBIA UNIVERSITY IN THE CITY OF NEW YORK, priority 2014, dated 2021)

Key:
[1] = tested on: glycolytic and oxidative muscles of WT mice; experiment: In vivo 3H-2-DG glucose uptake in muscle after exercise; parameters: species or system mouse; conditions: older WT mice receiving Ocn (500 ng/g) before running; greater extent in oxidative than glycolytic muscles
Description: FIG. 31. Osteocalcin treatment increases muscle function in young and old WT mice. (A-B) Performance during endurance exercise of 3 month-old WT, Gprc6af/f and Gprc6aMck−/− female mice treated with Ocn (n=6-10 per group). (C) Performance during endurance exercise of 12 and 15 month-old WT female mice treated with Ocn (n=6-10 per group). (D) Western blot analysis of Akt phosphorylation (Ser473) in muscles of WT mice injected with Ocn (500 ng/g) after a single bout of exercise. (E) Western blot analysis of AMPK phosphorylation ([…]) in muscles of WT mice injected with Ocn (500 ng/g) after a single bout of exercise. […]
Glucose and insulin tolerance tests were performed as previously described (Lee et al., 2007, Cell 130:456-469). For in vivo glucose uptake, a bolus of 2-deoxy-d-[^3H]glucose (^3H-2-DG, Perkin Elmer) (10 μCi) was administered before an endurance run. ^3H-2-DG and ^3H-2-DG-6-P content in muscle was determined by liquid scintillation counter and normalized to muscle weight. […] GLUT4 translocation was determined by flow cytometry using an antibody against the extracellular domain of the GLUT4 protein (Santa Cruz, Sc-1606). […] To analyze mitochondrial function, myofibers were treated with three compounds in succession (oligomycin 10 μg/ml, FCCP 200 μM, rotenone 0.2 μM) and OCR was recorded following administration of each of them.

WT mice = experiment: D/LT and EPMT in adult WT mice with ICV infusion; assay type: in vivo, mouse
Description: FIG. 14. Osteocalcin improves cognitive function in adult wild-type (WT) mice. Results from dark and light (DLT) and elevated plus maze tests (EPMT) performed in 3-month old WT mice infused ICV with vehicle (PBS) or recombinant uncarboxylated osteocalcin (Ocn) (3, 10, 30 ng/hour) are shown. (A) DLT measuring the latency to enter, the number of entries, and the time spend in lit compartment. (B) EPMT measuring the number of entries into open arms and the time spend in […].
Each mouse was allowed to explore the apparatus for 5 min. Global activity was assessed by measuring the number of entries […] (David et al, 2009, Neuron 62:479-493). Anxiety was assessed by comparing the time spent in the open arms.
The test was performed in a quiet, darkened room. Mice were individually housed in cages containing a handful of bedding from their home cage and acclimated to the room at least 1 h before the test. Naïve mice were placed individually in the testing chamber in the dark compartment. The test was 5 min in duration, and time spent and number of entries in light compartments were recorded a highly trained observer, blind to the genotype of the mice.
To determine if osteocalcin is sufficient to improve cognitive function in adult mice, WT 2-month old mice were implanted with ICV pumps delivering vehicle (PBS), or 3, 10, or 30 ng/hr recombinant uncarboxylated full-length mouse osteocalcin for a period of one month. After one month of infusion, animals were subjected to behavioral testing. […] This improvement is evidenced by an increase in the exploration of the lit compartment and open arms in the D/LT and EMP tests, respectively (FIG. 14A-B).

WT myotubes = experiment: Western blot of Akt phosphorylation (Ser473) in cultured myotubes; assay type: cell-based, mouse; conditions: Ocn 10 ng/ml
Description: FIG. 26. Osteocalcin signaling in myofibers promotes glucose uptake. (A) VO2, (B) VO2 max and (C) RER in female Gprc6af/f and Gprc6aMck−/− mice during a gradual speed increase test. (D-E) Uptake of ^3H-2-deoxyglucose (^3H-2-DG) in WT and Gprc6a−/− myotubes treated with vehicle or Ocn (dose indicated in panel D, 10 ng/ml in panel E). (F) Uptake of ^3H-2-DG in glycolytic (Gly—white quadriceps) and oxidative (Ox—red quadriceps) muscles after a single bout of exercise in Gprc6af/f and Gprc6aMck^−/− mice (n=4 per group). (G) Blood glucose levels in Gprc6af/f and Gprc6aMck−/− mice after running on a treadmill until exhaustion (n=4 per group). (H) Blood glucose levels in Gprc6af/f and Gprc6aHsa−/− mice after running on a treadmill until exhaustion (n=4 per group). (I) Western blot analyses of Akt phosphorylation (Ser473) in WT myotubes treated with Ocn (10 ng/ml) and in muscles of WT mice injected with Ocn (500 ng/g) after a single bout of exercise. (J) Western blot analyses of Akt phosphorylation (Ser473) in Gprc6af/f and Gprc6aMck−/− muscles after a single bout of exercise. (K) Glycogen content and glycogen breakdown in Gprc6af/f and Gprc6aMck−/− muscles at rest and after exercise.
Culture of skeletal muscle myoblasts from 7 day-old mice was performed as described (Gharaibeh et al., 2008, Nature Protocols 3:1501-1509). […]

[2] = 3 or 10 ng/hour ICV for one month

uncarboxylated osteocalcin: Recombinant uncarboxylated mouse osteocalcin, bacterially produced, purified on glutathione beads and cleaved from the GST subunit by thrombin (YLGASVPSPDPLEPTREQCELNPACDELSDQYGLKTAYKRIYGITI)
glucose uptake in muscle [1]: increase | exploration of the lit compartment (D/LT) (WT mice; [2]): increase | exploration of the open arms (EPMT) (WT mice; [2]): increase | anxiety-like behavior (WT mice; 3 or 10 ng/hour ICV for one month, WT 2-month old mice): decrease | cognitive function (WT mice; adult WT mice, ICV 3, 10, 30 ng/hour (FIG. 14 title)): improves | phosphorylation of Akt in cultured myotubes (WT myotubes): induced
